Reference: ChEMBL document CHEMBL1153442, “Synthesis and in vitro evaluation of sulfonamide isatin Michael acceptors as small molecule inhibitors of caspase-6” (J Med Chem, 2009)

Assays:
Caspase-7 = target: T1, Caspase-7 (Homo sapiens, UniProt P55210); test: Inhibition of human recombinant caspase 7 assessed as accumulation of fluorogenic product by fluorometric assay
T1 sequence (P55210 whole entry): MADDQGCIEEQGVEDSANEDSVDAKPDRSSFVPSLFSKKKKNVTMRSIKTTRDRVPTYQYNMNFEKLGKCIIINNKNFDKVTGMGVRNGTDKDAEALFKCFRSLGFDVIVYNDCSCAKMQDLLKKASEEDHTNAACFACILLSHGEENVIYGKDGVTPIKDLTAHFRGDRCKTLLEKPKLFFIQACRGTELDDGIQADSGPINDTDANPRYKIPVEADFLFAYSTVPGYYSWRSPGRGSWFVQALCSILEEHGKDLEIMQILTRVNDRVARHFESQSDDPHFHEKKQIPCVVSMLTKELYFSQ

Caspase-8 = Caspase-8 (Homo sapiens, UniProt Q14790); test: Inhibition of human recombinant caspase 8 assessed as accumulation of fluorogenic product by fluorometric assay
Caspase-3 = target: T2, Caspase-3 (Homo sapiens, UniProt P42574); test: Inhibition of human recombinant caspase 3 assessed as accumulation of fluorogenic product by fluorometric assay
T2 sequence (P42574 whole entry): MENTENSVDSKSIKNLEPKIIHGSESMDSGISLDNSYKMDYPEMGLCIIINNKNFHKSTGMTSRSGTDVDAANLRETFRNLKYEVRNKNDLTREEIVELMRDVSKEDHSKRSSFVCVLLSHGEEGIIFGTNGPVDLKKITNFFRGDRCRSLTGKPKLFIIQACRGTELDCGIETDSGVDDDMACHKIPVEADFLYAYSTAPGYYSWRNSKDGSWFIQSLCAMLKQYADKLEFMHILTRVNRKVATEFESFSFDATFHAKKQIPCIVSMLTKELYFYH

Caspase-1 = target: T3, Caspase-1 (Homo sapiens, UniProt P29466); test: Inhibition of human recombinant caspase 1 assessed as accumulation of fluorogenic product by fluorometric assay
T3 sequence (P29466 whole entry): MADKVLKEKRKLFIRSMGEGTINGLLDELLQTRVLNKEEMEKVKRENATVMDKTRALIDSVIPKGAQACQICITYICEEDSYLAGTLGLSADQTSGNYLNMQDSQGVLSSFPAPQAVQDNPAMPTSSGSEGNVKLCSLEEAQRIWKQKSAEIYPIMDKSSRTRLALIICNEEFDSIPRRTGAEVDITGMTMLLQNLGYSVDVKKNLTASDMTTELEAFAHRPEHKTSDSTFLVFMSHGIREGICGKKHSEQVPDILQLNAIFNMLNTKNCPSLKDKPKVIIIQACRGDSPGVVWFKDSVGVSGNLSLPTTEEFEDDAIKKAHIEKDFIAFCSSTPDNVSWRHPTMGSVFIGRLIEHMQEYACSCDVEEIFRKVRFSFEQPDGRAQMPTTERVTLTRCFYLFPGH

Caspase-6 = target: T4, Caspase-6 (Homo sapiens, UniProt P55212); test: Inhibition of human recombinant caspase 6 assessed as accumulation of fluorogenic product by fluorometric assay
T4 sequence (P55212 whole entry): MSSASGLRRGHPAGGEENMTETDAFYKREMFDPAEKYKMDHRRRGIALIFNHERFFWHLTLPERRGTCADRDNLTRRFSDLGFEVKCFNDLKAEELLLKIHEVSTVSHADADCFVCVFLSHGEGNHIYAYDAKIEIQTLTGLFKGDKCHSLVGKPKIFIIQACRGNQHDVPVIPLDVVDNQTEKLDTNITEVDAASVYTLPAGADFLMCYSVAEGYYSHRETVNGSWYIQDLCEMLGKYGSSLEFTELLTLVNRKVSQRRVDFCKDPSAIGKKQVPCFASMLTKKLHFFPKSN

Homo sapiens = species on record: Homo sapiens; test: Selectivity for human recombinant caspase 3 over human recombinant caspase 6

Chain of Caspase-8 (Q14790 217-374 limits assumed): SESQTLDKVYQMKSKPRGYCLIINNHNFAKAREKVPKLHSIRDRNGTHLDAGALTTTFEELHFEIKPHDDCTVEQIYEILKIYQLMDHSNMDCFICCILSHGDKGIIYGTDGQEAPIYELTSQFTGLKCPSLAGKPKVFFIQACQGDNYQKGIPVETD
Chain of Caspase-8 (Q14790 385-479 limits assumed): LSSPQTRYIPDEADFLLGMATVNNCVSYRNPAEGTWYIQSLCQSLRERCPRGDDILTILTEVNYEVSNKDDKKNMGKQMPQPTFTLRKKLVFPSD

| Compound | IC50 (Caspase-7) [µM] | IC50 (Caspase-8) [µM] | IC50 (Caspase-3) [µM] | IC50 (Caspase-1) [µM] | IC50 (Caspase-6) [µM] | fold change (FC) (Homo sapiens) |
| --- | --- | --- | --- | --- | --- | --- |
| O=C1Nc2ccc(S(=O)(=O)N3CCOCC3)cc2C1=O | > 20 | > 50 | > 20 | > 25 | > 20 | – |
| COc1ccc(CN2C(=O)C(=C(C#N)C#N)c3cc(S(=O)(=O)N4CCCCC4)ccc32)cc1 | 1.15 | > 50 | 1.4 | > 10 | 0.545 | – |
| N#CC(C#N)=C1C(=O)N(Cc2ccc(Cl)c(Cl)c2)c2ccc(S(=O)(=O)N3CCSCC3)cc21 | 5.1 | > 50 | 1.99 | 5.35 | 0.23 | – |
| COc1ccc(CN2C(=O)C(=C(C#N)C#N)c3cc(S(=O)(=O)N4CCCC4)ccc32)cc1 | 0.443 | > 50 | 0.673 | 4.7 | 0.358 | – |
| N#CC(C#N)=C1C(=O)N(Cc2ccc(Cl)c(Cl)c2)c2ccc(S(=O)(=O)N3CCCCC3)cc21 | 3.42 | > 50 | 0.529 | > 10 | 0.568 | – |
| CC(=O)N[C@@H](CC(=O)O)C(=O)N[C@@H](CCC(=O)O)C(=O)N[C@H](C(=O)N[C@H](C=O)CC(=O)O)C(C)C | 0.00295 | – | – | – | – | – |
| O=C1C(=O)N(Cc2ccccc2)c2ccc(S(=O)(=O)N3CCC[C@H]3COc3ccccc3)cc21 | – | – | 0.0145 | – | > 5 | – |
| O=C1C(=O)N(Cc2ccc(Cl)c(Cl)c2)c2ccc(S(=O)(=O)N3CCOCC3)cc21 | 2.23 | > 50 | 1.43 | > 25 | > 15 | – |
| N#CC(C#N)=C1C(=O)N(Cc2ccc(Cl)c(Cl)c2)c2ccc(S(=O)(=O)N3CCCC3)cc21 | 0.471 | > 50 | 0.724 | > 10 | 0.468 | – |
| O=C1C(=O)N(Cc2ccccc2)c2ccc(S(=O)(=O)N3CCSCC3)cc21 | 1.48 | > 50 | 1.03 | > 10 | 12.8 | 10 |
| COc1ccc(CN2C(=O)C(=C(C#N)C#N)c3cc(S(=O)(=O)N4CCSCC4)ccc32)cc1 | 1.89 | > 50 | 1.67 | 4.3 | 0.188 | – |
| O=C1C(=O)N(Cc2ccccc2)c2ccc(S(=O)(=O)N3CCC3)cc21 | 0.132 | > 50 | 0.114 | > 10 | 9.83 | – |

Continued, values first:

| IC50 (Caspase-7) [µM] | IC50 (Caspase-8) [µM] | IC50 (Caspase-3) [µM] | IC50 (Caspase-1) [µM] | IC50 (Caspase-6) [µM] | fold change (FC) (Homo sapiens) | Compound |
| --- | --- | --- | --- | --- | --- | --- |
| 0.878 | > 50 | 0.583 | – | 0.325 | – | N#CC(C#N)=C1C(=O)N(Cc2ccccc2)c2ccc(S(=O)(=O)N3CCCCC3)cc21 |
| 0.471 | > 50 | 0.718 | 4.18 | 0.197 | – | COc1ccc(CN2C(=O)C(=C(C#N)C#N)c3cc(S(=O)(=O)N4CCC4)ccc32)cc1 |
| 0.587 | > 50 | 0.671 | 4.7 | 0.241 | – | N#CC(C#N)=C1C(=O)N(Cc2ccccc2)c2ccc(S(=O)(=O)N3CCCC3)cc21 |
| 0.34 | > 50 | 0.365 | > 10 | 0.28 | – | N#CC(C#N)=C1C(=O)N(Cc2ccc(Cl)c(Cl)c2)c2ccc(S(=O)(=O)N3CCC3)cc21 |
| 0.248 | > 50 | 0.323 | 3.3 | 0.156 | – | N#CC(C#N)=C1C(=O)N(Cc2ccccc2)c2ccc(S(=O)(=O)N3CCC3)cc21 |
| 4.47 | > 50 | 4.7 | – | 0.425 | – | N#CC(C#N)=C1C(=O)N(Cc2ccccc2)c2ccc(S(=O)(=O)N3CCOCC3)cc21 |
| 1.62 | > 50 | 1.45 | 4.58 | 0.151 | – | N#CC(C#N)=C1C(=O)N(Cc2ccccc2)c2ccc(S(=O)(=O)N3CCSCC3)cc21 |
| 7.9 | > 50 | 1.55 | 5.35 | 0.592 | – | N#CC(C#N)=C1C(=O)N(Cc2ccc(Cl)c(Cl)c2)c2ccc(S(=O)(=O)N3CCOCC3)cc21 |
| 4.1 | > 50 | 4.63 | 6.82 | 0.453 | – | COc1ccc(CN2C(=O)C(=C(C#N)C#N)c3cc(S(=O)(=O)N4CCOCC4)ccc32)cc1 |
